The target of one test is T1, NK-1 receptor (Homo sapiens, UniProt P25103).
T1 construct: an aliquot of IM9 cells; endogenous in cells; host or cells: IM9 cells (whole cells)
In words: NK-1 Receptor Binding Assay (competition with labeled substance P on IM9 cells). Particulars: for inhibition at 10 µM: inhibition of substance P binding to the NK-1 receptor, read-out: Percent Inhibition. On the procedure: Radioreceptor binding assays were performed using a derivative of a previously published protocol. D.G. Payan, et al., Journal of Immunology, 133:3260-3265 (1984). In this assay an aliquot of IM9 cells (1 x 10⁶ cells/tube in […] medium supplemented with 10% fetal calf serum) was incubated with 20 pM […] substance P in the presence of increasing competitor concentrations for 45 minutes at 4°C.
The IM9 cell line is a well-characterized cell line which is readily available to the public. See. e.g., Annals of the New York Academy of Science, 190: 221-234 (1972); Nature (London), 251:443-444 (1974); Proceedings of the National Academy of Sciences (USA), 71:84-88 (1974). These cells were routinely cultured in RPMI 1640 supplemented with 50 µg/ml gentamicin sulfate and 10% fetal calf serum.
The reaction was terminated by filtration through a glass fiber filter harvesting system using filters previously soaked for 20 minutes in 0.1% polyethylenimine. Specific binding of labeled substance P was determined in the presence of 20 nM unlabeled ligand.
Column 1 provides the example number of the test antagonist compound. The next columns detail the substitution patterns of the test compound.

The next test addresses T2, human NK-2 receptor (Homo sapiens, UniProt P21452).
T2 construct: expressed in transfected cells; host or cells: CHO-hNK-2R cells (CHO-derived), membrane preparation
T2 sequence (P21452 1-398): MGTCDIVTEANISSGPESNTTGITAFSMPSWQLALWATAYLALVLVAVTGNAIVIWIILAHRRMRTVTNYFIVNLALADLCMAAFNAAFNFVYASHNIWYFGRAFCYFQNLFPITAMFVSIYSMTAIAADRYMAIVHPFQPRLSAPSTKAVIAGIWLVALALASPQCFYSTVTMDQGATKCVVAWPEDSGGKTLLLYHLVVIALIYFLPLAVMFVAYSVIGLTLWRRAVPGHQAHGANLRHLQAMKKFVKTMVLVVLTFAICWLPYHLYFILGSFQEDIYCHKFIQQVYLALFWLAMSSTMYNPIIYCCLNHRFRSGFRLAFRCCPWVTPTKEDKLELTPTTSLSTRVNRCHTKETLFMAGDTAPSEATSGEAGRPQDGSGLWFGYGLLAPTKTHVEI
Nature of the test: NK-2 Receptor Binding Assay (CHO-hNK-2R membranes, iodohistidyl-neurokinin A). Particulars: for inhibition at 10 µM: inhibition of neurokinin A binding at ten micromolar, read-out: Percent Inhibition @ 10 μM; for IC50: values in parentheses, amount necessary to inhibit fifty percent of the binding of neurokinin A. The method, then:
The CHO-hNK-2R cells, a CHO-derived cell line transformed with the human NK-2 receptor, expressing about 400,000 such receptors per cell, were grown in 75 cm flasks or roller bottles in minimal essential medium (alpha modification) with 10% fetal bovine serum. The gene sequence of the human NK-2 receptor is given in N.P. Gerard, et al., Journal of Biological Chemistry, 265:20455-20462 (1990).
For preparation of membranes, 30 confluent roller bottle cultures were dissociated by washing each roller bottle with 10 ml of Dulbecco's phosphate buffered saline (PBS) without calcium and magnesium, followed by addition of 10 ml of enzyme-free cell dissociation solution (PBS-based, from Specialty Media, Inc.). After an additional 15 minutes, the dissociated cells were pooled and centrifuged at 1,000 RPM for 10 minutes in a clinical centrifuge. Membranes were prepared by homogenization of the cell pellets in 300 ml 50 mM Tris buffer, pH 7.4 with a Tekmar® homogenizer for 10-15 seconds, followed by centrifugation at 12,000 RPM (20,000 x g) for 30 minutes using a Beckman JA-14® rotor. The pellets were washed once using the above procedure. and the final pellets were resuspended in 100-120 ml 50 mM Tris buffer, pH 7.4, and 4 ml aliquots stored frozen at -70 °C. The protein concentration of this preparation was 2 mg/ml.
For the receptor binding assay, one 4-ml aliquot of the CHO-hNK-2R membrane preparation was suspended in 40 ml of assay buffer containing 50 mM Tris, pH 7.4, 3 mM manganese chloride, 0.02% bovine serum albumin (BSA) and 4 µg/ml chymostatin. A 200 µl volume of the homogenate (40 µg protein) was used per sample. The radioactive ligand was [[…]]iodohistidyl-neurokinin A (New England Nuclear, NEX-252), 2200 Ci/mmol. The ligand was prepared in assay buffer at 20 nCi per 100 µl; the final concentration in the assay was 20 pM. Non-specific binding was determined using 1 µM eledoisin. Ten concentrations of eledoisin from 0.1 to 1000 nM were used for a standard concentration-response curve.
All samples and standards were added to the incubation in 10 µl dimethylsulfoxide (DMSO) for screening (single dose) or in 5 µl DMSO for IC₅₀ determinations. The order of additions for incubation was 190 or 195 µl assay buffer, 200 µl homogenate, 10 or 5 µl sample in DMSO, 100 µl radioactive ligand. The samples were incubated 1 hr at room temperature and then filtered on a cell harvester through filters which had been presoaked for two hours in 50 mM Tris buffer, pH 7.7, containing 0.5% BSA. The filter was washed 3 times with approximately 3 ml of cold 50 mM Tris buffer, pH 7.7. The filter circles were then punched into 12 x 75 mm polystyrene tubes and counted in a gamma counter.
Table II, infra, provides a representative sample of the effectiveness as NK-2 receptor antagonists of many of the compounds of Formula I. The first column provides the Example number of the compound tested. The second column provides either the percent inhibition of neurokinin A binding when the compound is present in a ten micromolar concentration or the amount of compound (in micromolar amounts) necessary to inhibit fifty percent of the binding of neurokinin A. Those values which represent IC₅₀ values are designated by parentheses.

T1 sequence (P25103 whole entry): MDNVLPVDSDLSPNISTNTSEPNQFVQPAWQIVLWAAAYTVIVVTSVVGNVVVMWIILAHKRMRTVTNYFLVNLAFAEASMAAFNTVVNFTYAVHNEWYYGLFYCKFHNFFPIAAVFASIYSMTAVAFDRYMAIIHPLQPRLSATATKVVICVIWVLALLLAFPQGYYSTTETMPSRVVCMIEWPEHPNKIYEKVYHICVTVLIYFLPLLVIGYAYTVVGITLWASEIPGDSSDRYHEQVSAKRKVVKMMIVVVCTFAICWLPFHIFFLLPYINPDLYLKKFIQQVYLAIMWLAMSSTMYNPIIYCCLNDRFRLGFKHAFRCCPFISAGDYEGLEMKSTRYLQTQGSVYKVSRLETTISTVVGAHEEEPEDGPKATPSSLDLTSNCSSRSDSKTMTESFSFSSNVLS

Regarding `COc1cc(-c2nc3ccccc3n2Cc2cccc(Cl)c2)cc(OC)c1OC` [Example 40, 1-(3-chlorobenzyl)-2-(3,4,5-trimethoxyphenyl)-benzimidazole], the inhibition (in general, the change of the read-out against control, counted positive when it falls) at 10 µM on NK-1 receptor amounted to 77%; on human NK-2 receptor, 55%. Turning to `COc1cc(-c2nc3ccccc3n2Cc2ccccc2Cl)cc(OC)c1OC` [Example 41, 1-(2-chlorobenzyl)-2-(3,4,5-trimethoxyphenyl)-benzimidazole], on NK-1 receptor (concentration which inhibits fifty percent of the binding of substance P, 20 pM labeled substance P, 45 minutes at 4°C), the IC50 – broadly, the point on the concentration scale where inhibition reaches its midpoint – was 0.815 µM. Also, at human NK-2 receptor, the inhibition at 10 µM was 73.7%.

As for `COc1cc(-c2nc3ccccc3n2Cc2ccc(Cl)cc2)cc(OC)c1OC` [Example 42, 1-(4-chlorobenzyl)-2-(3,4,5-trimethoxyphenyl)-benzimidazole], the inhibition at 10 µM at NK-1 receptor is 61%; at human NK-2 receptor it was 2.6%. Turning to `Cc1cccc(-c2nc3ccc(OCCN4CCCC4)cc3n2Cc2ccccc2)c1` [Example 86, 1-benzyl-2-(3-methylphenyl)-6-[2-(1-pyrrolidinyl)ethoxy]benzimidazole], the inhibition at 10 µM on human NK-2 receptor was determined as 48.5%. Regarding `Cc1cccc(-c2nc3ccc(OCCN4CCOCC4)cc3n2Cc2ccccc2)c1` [Example 87, 1-benzyl-2-(3-methylphenyl)-6-[2-(4-morpholinyl)ethoxy]benzimidazole], the inhibition at 10 µM on human NK-2 receptor was 81.9%.

For `Cc1cccc(-c2nc3ccc(OCCN(C)C)cc3n2Cc2ccccc2)c1` [Example 88, 1-benzyl-2-(3-methylphenyl)-6-[2-(N,N-dimethylamino)ethoxy]benzimidazole], the inhibition at 10 µM on human NK-2 receptor was 31.6%.

For the molecule `Cc1cccc(-c2nc3ccc(OCCN(Cc4ccccc4)Cc4ccccc4)cc3n2Cc2ccccc2)c1` [Example 89, 1-benzyl-2-(3-methylphenyl)-6-[2-(N,N-dibenzylamino)ethoxy]benzimidazole], the inhibition at 10 µM on human NK-2 receptor amounted to 24.5%. As for `CCN(CCOc1ccc2nc(-c3cccc(C)c3)n(Cc3ccccc3)c2c1)c1ccccc1` [Example 90, 1-benzyl-2-(3-methylphenyl)-6-[2-(N-phenyl-N-ethylamino)ethoxy]benzimidazole], the inhibition at 10 µM at human NK-2 receptor worked out at 34%.

Consider `Cc1cccc(-c2nc3ccc(OCCN(C(C)C)C(C)C)cc3n2Cc2ccccc2)c1` [Example 91, 1-benzyl-2-(3-methylphenyl)-6-[2-(N,N-isopropylamino)ethoxy]benzimidazole], for which, at human NK-2 receptor, the inhibition at 10 µM is 60.7%. Still for that read-out and setting: with `Cc1cccc(-c2nc3ccc(OCCN4CCCCCC4)cc3n2Cc2ccccc2)c1` [Example 92, 1-benzyl-2-(3-methylphenyl)-6-[2-(hexamethyleneimin-1-yl)ethoxy]benzimidazole] the figure was 82.5%.

Consider `CCN(CC)CCOc1ccc2nc(-c3cccc(C)c3)n(Cc3ccccc3)c2c1` [Example 93, 1-benzyl-2-(3-methylphenyl)-6-[2-(N,N-diethylamino)ethoxy]benzimidazole], for which the inhibition at 10 µM on human NK-2 receptor was determined as 42%. Take `Cc1cccc(-c2nc3ccc(OCCCN(C)C)cc3n2Cc2ccccc2)c1` [Example 94, 1-benzyl-2-(3-methylphenyl)-6-[3-(N,N-dimethylamino)propoxy]benzimidazole]: the inhibition at 10 µM at human NK-2 receptor amounted to 38.4%.

`Cc1cccc(-c2nc3ccc(OCCCN4CCCCC4)cc3n2Cc2ccccc2)c1` [Example 95, 1-benzyl-2-(3-methylphenyl)-6-[3-(piperdin-1-yl)propoxy]benzimidazole]: the inhibition at 10 µM at human NK-2 receptor came out at 80.4%. As to `Cc1cccc(-c2nc3ccc(OCC(C)N(C)C)cc3n2Cc2ccccc2)c1` (stereo not drawn) [Example 96, 1-benzyl-2-(3-methylphenyl)-6-[2-(N,N-dimethylamino)propoxy]-benzimidazole], the inhibition at 10 µM at human NK-2 receptor was found to be 34%.

For `Cc1cccc(-c2nc3ccc(OCCCCl)cc3n2Cc2ccccc2)c1` [Example 97, 1-benzyl-2-(3-methylphenyl)-6-(3-chloropropoxy)-benzimidazole], on human NK-2 receptor, the inhibition at 10 µM worked out at 64.4%. In the case of `Cc1cccc(-c2nc3ccc(OCCCl)cc3n2Cc2ccccc2)c1` [Example 98, 1-benzyl-2-(3-methylphenyl)-6-(2-chloroethoxy)-benzimidazole], on human NK-2 receptor, the IC50 is 7.24 µM. On the same count and under the same terms, in the case of `Cc1cccc(-c2nc3ccc(OCCCN4CCOCC4)cc3n2Cc2ccccc2)c1` [Example 99, 1-benzyl-2-(3-methylphenyl)-6-[3-(morpholin-4-yl)propoxy)benzimidazole] it was 3.08 µM; in that of `Cc1cccc(-c2nc3ccc(OCCCN4CCCC4)cc3n2Cc2ccccc2)c1` [Example 100, 1-benzyl-2-(3-methylphenyl)-6-[3-(pyrrolidin-1-yl)propoxy)benzimidazole], 6.8 µM. Turning to `Cc1cccc(-c2nc3ccc(OCCCN4CCCCCC4)cc3n2Cc2ccccc2)c1` [Example 101, 1-benzyl-2-(3-methylphenyl)-6-[3-(hexamethyleneimin-1-yl)propoxy)benzimidazole], the concentration for half-maximal inhibition (IC50) at human NK-2 receptor stood at 1.04 µM. Regarding `COc1cc(-c2nc3ccc(O)cc3n2Cc2ccccc2C(F)(F)F)cc(OC)c1OC` [Example 104, 1-(2-trifluoromethylbenzyl)-2-(3,4,5-trimethoxyphenyl)-6-hydroxybenzimidazole], the inhibition at 10 µM at human NK-2 receptor is 39.3%. As for `COc1cc(-c2nc3ccc(OCCN4CCCCC4)cc3n2Cc2ccccc2C(F)(F)F)cc(OC)c1OC` [Example 105, 1-(2-trifluoromethylbenzyl)-2-(3,4,5-trimethoxyphenyl)-6-[2-(piperidin-1-yl)ethoxy]benzimidazole], on human NK-2 receptor, the concentration for half-maximal inhibition (IC50) came to 5.17 µM. For the molecule `COc1cc(-c2nc3ccc(O)cc3n2Cc2ccccc2Br)cc(OC)c1OC` [Example 114, 1-(2-bromobenzyl)-2-(3,4,5-trimethoxyphenyl)-6-hydroxybenzimidazole], the inhibition at 10 µM at human NK-2 receptor worked out at 57.4%. For `COc1cc(-c2nc3ccc(OCCN4CCCCC4)cc3n2Cc2ccccc2Br)cc(OC)c1OC` [Example 115, 1-(2-bromobenzyl)-2-(3,4,5-trimethoxyphenyl)-6-[2-(piperidin-1-yl)ethoxy]benzimidazole], the IC50 on human NK-2 receptor worked out at 4.29 µM. Regarding `Cc1cccc(-c2nc3ccc(O)cc3n2Cc2ccccc2C(F)(F)F)c1` [Example 120, 1-(2-trifluoromethylbenzyl)-2-(3-methylphenyl)-6-hydroxybenzimidazole], the inhibition at 10 µM on human NK-2 receptor amounted to 55.9%.

These data come from EP0694535A1, “Non-peptidyl tachykinin receptor antagonists” (ELI LILLY AND COMPANY, priority 1994, dated 1996).
